Laboratory results: patent US6537593B2, “Plant phenol as new hepatoprotective agents” (Council of Scientific and Industrial Research, priority 2000, dated 2003)

Assays:
[1] = test system: Male wistar rats; assay: Carbon tetrachloride induced hepatotoxicity in rats (serum AST and ALT); type: in vivo, rat; settings: for Protection against CCl4 induced toxicity: orally, rats
Method: Carbon tetrachloride is a classical method to induce free radical mediated hepatotoxicity. In order to evaluate the free radical mediated hepatotoxicity and heptoprotective properties in the compound (−)-wikstromol, this method was employed. Male wistar rats were selected for study. The compound was dissolved in a small amount of DMSO and reconstituted in gum acacia/water. The compound was given one hour before CCl4 administration to the over-night fasted rats in a dose of 250 mg/kg-body weight, orally. After one hour, a mixture of CCl4 and liquid paraffin (1:1, v/v) in the dose of 2.5 ml/kg was given orally. Fasting was continued. However, water was provided ad-libitum. After 5 hrs of CCl4 administration, blood was taken out from the retroorbital plexus. Serum aspartase transaminase and serum alanine transaminase was measured as a marker of hepatotoxicity.
Carbon tetrachloride induced toxicity was repeated as referred in the example 2 by changing the dosage level to 300 mg/kg-body weight, orally. Fasting was continued. However, water was provided ad-libitum. After 5hrs of CCl4 administration, blood was taken out from the retroorbital plexus. Serum aspartase transaminase and serum alanine transaminase was measured as a marker of hepatotoxicity.

[2] = test system: HIV; settings: cited from earlier work
[3] = test system: p-388 lymphocyte leukemia; settings: cited from earlier work
[4] = serum, 5 hours after CCl4 administration, compound 250 mg/kg orally one hour before CCl4 2.5 ml/kg, mean ± SD

In the case of `COc1cc(C[C@@H]2COC(=O)[C@@]2(O)Cc2ccc(O)c(OC)c2)ccc1O` [(−)-wikstromol, 4,4^1,8-trihydroxy-3,3^1-dimethoxyliganan-9,9^1-olide], the “Protection against CCl4 induced toxicity” value ([1]; 250 mg/kg-body weight) is reported as “significantly prevented CCl4 induced toxicity”, the “Protection against CCl4 induced toxicity” value ([1]; 300 mg/kg-body weight) is reported as “shows significant activity and prevented CCl4 induced toxicity” and the Hepatoprotective effectiveness ([1]; dosage of 250 to 300 mg/kg of body weight) is reported as “highly effective”. For the same molecule, the “ALT (U/L) Before” value ([1]; serum alanine transaminase before oral administration of compound and CCl4, mean ± SD, 250 mg/kg group) was 42 ± 7 U/L, the “AST (U/L) Before” value ([1]; serum aspartate transaminase before oral administration of compound and CCl4, mean ± SD, 250 mg/kg group) was 281 ± 91 U/L and the “ALT (U/L) After” value [1, 4] was 188 ± 66 U/L. The “AST (U/L) After” value [1, 4] was 557 ± 126 U/L, the Anti-HIV activity [2] was “anti-HIV activity” and the “Activity against p-388 lymphocyte leukemia” value [3] was “active”.
